Measured values reported in patent publication US20060004028A1, “Novel PARP inhibitor” (MOCHIDA PHARMACEUTICAL CO., LTD., priority 2002, published 2006).

First: O=C1CCN2c3c1cccc3C(=O)NC2c1cccnc1 (centres unmarked)
Second: O=C1CCN2c3c1cccc3C(=O)NC2c1ccccc1 (centres unmarked) [Example 15, 3-(phenyl)-6,7-dihydro-3H,5H-pyrido[3,2,1-ij]quinazoline-1,7(2H)-dione]
The melting point of the first is higher: 190 to 191.6 °C for the first, 172.1 to 180.4 °C for the second.

First: COc1ccc(C2NC(=O)c3cccc4c3N2CCC4=O)cc1 (centres unmarked) [Example 1, 3-(4-methoxyphenyl)-6,7-dihydro-3H,5H-pyrido[3,2,1-ij]quinazoline-1,7(2H)-dione]
Second: Cc1ccc(C2NC(=O)c3cccc4c3N2CCC4=O)cc1 (centres unmarked) [Example 18, 3-(4-methylphenyl)-6,7-dihydro-3H,5H-pyrido[3,2,1-ij]quinazoline-1,7(2H)-dione]
The melting point of the first is lower: 137.4 to 144.2 °C for the first, 172.1 to 175.8 °C for the second.

First: COc1ccc(C2NC(=O)c3cccc4c3N2CCC4O)cc1 (centres unmarked) [Example 2, 7-hydroxy-3-(4-methoxyphenyl)-6,7-dihydro-3H,5H-pyrido[3,2,1-ij]quinazoline-1(2H)-one]
Second: COc1ccc([C@H]2NC(=O)c3cccc4c3N2CC[C@@H]4N)cc1 [Example 6, (−)-(3S,7S)-7-amino-3-(4-methoxyphenyl)-6,7-dihydro-3H,5H-pyrido[3,2,1-ij]quinazoline-1(2H)-one]
The melting point of the first is lower: 95.7 to 99.6 °C for the first, 110 to 112.7 °C for the second.

First: COc1ccc(C2NC(=O)c3cccc4c3N2CCC4=NO)cc1 (centres unmarked) [Example 3, 7-hydroxyimino-3-(4-methoxyphenyl)-6,7-dihydro-3H,5H-pyrido[3,2,1-ij]quinazoline-1(2H)]
Second: COc1ccc([C@@H]2NC(=O)c3cccc4c3N2CC[C@H]4N)cc1 [Example 7, (+)-(3R,7R)-7-amino-3-(4-methoxyphenyl)-6,7-dihydro-3H,5H-pyrido-[3,2,1-ij]quinazoline-1(2H)-one]
The melting point of the first is higher: 200.8 to 211.9 °C for the first, 110 to 112.7 °C for the second.

First: COc1ccc(C2NC(=O)c3cccc4c3N2CCC4=O)cc1[N+](=O)[O-] (centres unmarked) [Example 10, 3-(4-methoxy-3-nitrophenyl)-6,7-dihydro-1H,5H-pyrido[3,2,1-ij]quinazoline-1,7-(2H)-dione]
Second: O=C1CCN2c3c1cccc3C(=O)NC2c1ccc(F)c(F)c1 (centres unmarked) [Example 20, 3-(3,4-difluorophenyl)-6,7-dihydro-3H,5H-pyrido[3,2,1-ij]quinazoline-1,7(2H)-dione]
The melting point of the first is higher: 275.4 to 277.1 °C for the first, 184 to 189.6 °C for the second.

First: COc1ccc(C2NC(=O)c3cccc4c3N2CCC4NCc2ccc(N(C)C)cc2)cc1 (centres unmarked) [Example 13, 7-(4-N,N-dimethylaminophenyl)methylamino-3-(4-methoxyphenyl)-6,7-dihydro-3H,5H-pyrido[3,2,1-ij]quinazoline-1(2H)-one]
Second: COc1ccc(C2NC(=O)c3cc(F)cc4c3N2CCC4=O)cc1 (centres unmarked) [Example 24, 9-fluoro-3-(4-methoxyphenyl)-6,7-dihydro-3H,5H-pyrido[3,2,1-ij]quinazoline-1,7(2H)-dione]
The melting point of the first is lower: 73.2 to 75.6 °C for the first, 164.7 to 166 °C for the second.

First: N#Cc1ccc(C2NC(=O)c3cccc4c3N2CCC4=O)cc1 (centres unmarked) [Example 16, 3-(4-cyanophenyl)-6,7-dihydro-3H,5H-pyrido[3,2,1-ij]quinazoline-1,7(2H)-dione]
Second: O=C1CCN2c3c1cccc3C(=O)NC2c1ccc(F)cc1 (centres unmarked) [Example 19, 3-(4-fluorophenyl)-6,7-dihydro-3H,5H-pyrido[3,2,1-ij]quinazoline-1,7(2H)-dione]
The melting point of the first is lower: 134 to 146.9 °C for the first, 216 to 224.8 °C for the second.

First: O=C1CCN2c3c1cccc3C(=O)NC2c1ccc(Br)cc1 (centres unmarked) [Example 21, 3-(4-bromophenyl)-6,7-dihydro-3H,5H-pyrido[3,2,1-ij]quinazoline-1,7(2H)-dione]
Second: O=C(O)c1ccc(C2NC(=O)c3cccc4c3N2CCC4=O)cc1 (centres unmarked) [Example 22, 3-(4-carboxyphenyl)-6,7-dihydro-3H,5H-pyrido[3,2,1-ij]quinazoline-1,7(2H)-dione]
The melting point of the first is higher: 206.2 to 214 °C for the first, 154.3 to 158.9 °C for the second.

In the case of `COc1ccc(C2NC(=O)c3cccc4c3N2CCNC4=O)cc1` (centres unmarked) [Example 14, 3-(4-methoxyphenyl)-5,6-dihydro-3H-pyrimido[5,6,1-jk][1,4]benzdiazepin-1,8(2H,7H)-dione], the melting point is reported as 279.9 °C (dec.).
